Literature values, collected in US6620425B1, “Food supplements and methods comprising lipoic acid and creatine” (Muscletech Research and Development Inc., priority 1998, dated 2003).

Legend:
[1] = insulin-sensitive individuals

Compound | improvement of glucose tolerance [1] | increase of the metabolic clearance rate of glucose (in diabetics) [%] | the body's utilization of blood sugar (in type II diabetics)
chromium | up to 50% |  | 
O=C(O)CCCCC1CCSS1 (stereo not drawn) [lipoic acid, 6,8-dithio octanoic acid] |  | 50 | significantly increase
